Assay results reported in patent publication US8420817B2, “Tricyclic N-heteroaryl-carboxamide derivatives, preparation and therapeutic use thereof” (Sanofi, priority 2007, dated 2013).

With `CSc1ccc2cc(C(=O)Nc3cnc4c(c3)nc3n4CCC3)n(Cc3cccc(F)c3)c2c1` [Compound 22, N-(7,8-Dihydro-6H-pyrrolo[2′,1′:2,3]imidazo[4,5-b]pyridin-3-yl)-6-methylthio-1-(3-fluorobenzyl)-1H-indole-2-carboxamide] the melting point was 222 to 223 °C. `CN(C)C1CCn2c1nc1cc(NC(=O)c3cc4cc(C(F)(F)F)ccc4n3Cc3cccc(F)c3)cnc12` (single isomer, unassigned; (-)) [Compound 33, (−)-N-(6-Dimethylamino-7,8-dihydro-6H-pyrrolo[2′,1′:2,3]imidazo[4,5-b]pyridin-3-yl)-5-trifluoromethyl-1-(3-fluorobenzyl)-1H-indole-2-carboxamide] gave a melting point of 203 to 205 °C. In the case of `O=C(Nc1cnc2c(c1)nc1n2CCC1)c1cc2ccc(Cl)cc2n1Cc1cccc(F)c1`, the melting point is reported as 252 to 253 °C. `CC(C)(C)c1ccc2c(c1)cc(C(=O)Nc1cnc3c(c1)nc1n3CCC1)n2Cc1cccc(F)c1` [Compound 18, N-(7,8-Dihydro-6H-pyrrolo[2′,1′:2,3]imidazo[4,5-b]pyridin-3-yl)-5-tertbutyl-1-(3-fluorobenzyl)-1H-indole-2-carboxamide] gave a melting point of 234 to 236 °C. `O=C(Nc1cnc2c(c1)nc1n2CCC1O)c1cc2cc(F)ccc2n1Cc1cccc(F)c1` (racemic) gave a melting point of 288 to 290 °C. With `O=C(Nc1cnc2c(c1)nc1n2CCC1)c1cc2c(Cl)cccc2n1Cc1cccc(F)c1` the melting point was 302 to 303 °C. `O=C(Nc1cnc2c(c1)nc1n2CCC1)c1cc2ccccc2n1Cc1cccc(F)c1` showed a melting point of 243 to 244 °C. Work on `CC1(C)CCn2c1nc1cc(NC(=O)c3cc4cc(C(F)(F)F)ccc4n3Cc3cccc(F)c3)cnc12` [Compound 31, N-(6,6-Dimethyl-7,8-dihydro-6H-pyrrolo[2′,1′:2,3]imidazo[4,5-b]pyridin-3-yl)-5-trifluoromethyl-1-(3-fluorobenzyl)-1H-indole-2-carboxamide] yielded a melting point of 212 to 213 °C. `Cc1cccc2c1cc(C(=O)Nc1cnc3c(c1)nc1n3CCC1)n2Cc1cccc(F)c1` gave a melting point of 303 to 304 °C. Molecule `O=C(Nc1cnc2c(c1)nc1n2CCC1O)c1cc2cc(C(F)(F)F)ccc2n1Cc1cccc(F)c1` (stereo not drawn) [Compound 26, N-(6-Hydroxy-7,8-dihydro-6H-pyrrolo[2′,1′:2,3]imidazo[4,5-b]pyridin-3-yl)-5-trifluoromethyl-1-(3-fluorobenzyl)-1H-indole-2-carboxamide] has a melting point of 267 to 268 °C. `O=C(Nc1cnc2c(c1)nc1n2CCC1)c1cc2ccc(C(F)(F)F)nc2n1Cc1cccc(F)c1` [Compound 23, N-(7,8-Dihydro-6H-pyrrolo[2′,1′:2,3]imidazo[4,5-b]pyridin-3-yl)-6-trifluoromethyl-1-(3-fluorobenzyl)-1H-pyrrolo[2,3-b]pyridine-2-carboxamide] gave a melting point of 272 to 273 °C. For `O=C(Nc1cnc2c(c1)nc1n2CCC1)c1cc2cc(C(F)(F)F)cnc2n1Cc1cccc(F)c1` [Compound 24, N-(7,8-Dihydro-6H-pyrrolo[2′,1′:2,3]imidazo[4,5-b]pyridin-3-yl)-5-trifluoromethyl-1-(3-fluorobenzyl)-1H-pyrrolo[2,3-b]pyridine-2-carboxamide], the melting point was 247 to 249 °C. Molecule `O=C(Nc1cnc2c(c1)nc1n2CCC1)c1cc2c(F)cccc2n1Cc1cccc(F)c1` has a melting point of 265 to 266 °C. Molecule `O=C(Nc1cnc2c(c1)nc1n2CCC1)c1cc2cc(C(F)(F)F)ccc2n1Cc1cccc(F)c1` [Compound 8, N-(7,8-Dihydro-6H-pyrrolo[2′,1′:2,3]imidazo[4,5-b]pyridin-3-yl)-5-trifluoromethyl-1-(3-fluorobenzyl)-1H-indole-2-carboxamide] has a melting point of 223 to 225 °C. With `Cc1ccc2cc(C(=O)Nc3cnc4c(c3)nc3n4CCC3)n(Cc3cccc(F)c3)c2c1` the melting point was 182 to 183 °C. For `NC1CCn2c1nc1cc(NC(=O)c3cc4cc(F)ccc4n3Cc3cccc(F)c3)cnc12` (racemic) [Compound 34, N-(6-Amino-7,8-dihydro-6H-pyrrolo[2′,1′:2,3]imidazo[4,5-b]pyridin-3-yl)-5-fluoro-1-(3-fluorobenzyl)-1H-indole-2-carboxamide], the melting point was 218 to 220 °C. In the case of `O=C(Nc1cnc2c(c1)nc1n2CCC1)c1cc2ccc(C(F)(F)F)cc2n1Cc1cccc(F)c1` [Compound 7, N-(7,8-Dihydro-6H-pyrrolo[2′,1′:2,3]imidazo[4,5-b]pyridin-3-yl)-6-trifluoromethyl-1-(3-fluorobenzyl)-1H-indole-2-carboxamide], the melting point is reported as 261 to 262 °C. `CC(C)c1ccc2cc(C(=O)Nc3cnc4c(c3)nc3n4CCC3)n(Cc3cccc(F)c3)c2c1` [Compound 17, N-(7,8-Dihydro-6H-pyrrolo[2′,1′:2,3]imidazo[4,5-b]pyridin-3-yl)-6-isopropyl-1-(3-fluorobenzyl)-1H-indole-2-carboxamide] showed a melting point of 275 to 278 °C. With `O=C(Nc1cnc2c(c1)nc1n2CCC1)c1cc2ccc(F)cc2n1Cc1cccc(F)c1` the melting point was 235 to 236 °C. Molecule `O=C(Nc1cnc2c(c1)nc1n2CCC1)c1cc2cccc(F)c2n1Cc1cccc(F)c1` has a melting point of 237 to 239 °C. In the case of `Cc1ccc2c(c1)cc(C(=O)Nc1cnc3c(c1)nc1n3CCC1)n2Cc1cccc(F)c1`, the melting point is reported as 237 to 238 °C. For `CS(=O)(=O)c1ccc2c(c1)cc(C(=O)Nc1cnc3c(c1)nc1n3CCC1)n2Cc1cccc(F)c1` [Compound 21, N-(7,8-Dihydro-6H-pyrrolo[2′,1′:2,3]imidazo[4,5-b]pyridin-3-yl)-5-methylsulfonyl-1-(3-fluorobenzyl)-1H-indole-2-carboxamide], the melting point was 275 to 277 °C. With `CC(=O)NC1CCn2c1nc1cc(NC(=O)c3cc4cc(F)ccc4n3Cc3cccc(F)c3)cnc12` (racemic) [Compound 35, N-(6-Acetylamino-7,8-dihydro-6H-pyrrolo[2′,1′:2,3]imidazo[4,5-b]pyridin-3-yl)-5-fluoro-1-(3-fluorobenzyl)-1H-indole-2-carboxamide] the melting point was 282 to 283 °C. For `Cc1ccc(C)c2c1cc(C(=O)Nc1cnc3c(c1)nc1n3CCC1)n2Cc1cccc(F)c1`, the melting point was 286 to 288 °C. Molecule `CCc1ccc2cc(C(=O)Nc3cnc4c(c3)nc3n4CCC3)n(Cc3cccc(F)c3)c2c1` has a melting point of 224 to 226 °C. `O=C(Nc1cnc2c(c1)nc1n2CCC1O)c1cc2ccc(C(F)(F)F)cc2n1Cc1cccc(F)c1` (single isomer, unassigned; (-)) [Compound 28, (−)-N-(6-Hydroxy-7,8-dihydro-6H-pyrrolo[2′,1′:2,3]imidazo[4,5-b]pyridin-3-yl)-6-trifluoromethyl-1-(3-fluorobenzyl)-1H-indole-2-carboxamide] showed a melting point of 269 to 271 °C. With `O=C(Nc1cnc2c(c1)nc1n2CCC1O)c1cc2cc(C(F)(F)F)cnc2n1Cc1cccc(F)c1` (single isomer, unassigned; (-)) [Compound 36, (−)-N-(6-Hydroxy-7,8-dihydro-6H-pyrrolo[2′,1′:2,3]imidazo[4,5-b]pyridin-3-yl)-5-trifluoromethyl-1-(3-fluorobenzyl)-1H-pyrrolo[2,3-b]pyridine-2-carboxamide] the melting point was 279 to 280 °C. In the case of `CC(C)(C)c1ccc2cc(C(=O)Nc3cnc4c(c3)nc3n4CCC3)n(Cc3cccc(F)c3)c2c1` [Compound 19, N-(7,8-Dihydro-6H-pyrrolo[2′,1′:2,3]imidazo[4,5-b]pyridin-3-yl)-6-tertbutyl-1-(3-fluorobenzyl)-1H-indole-2-carboxamide], the melting point is reported as 244 to 245 °C. Molecule `O=C(Nc1cnc2c(c1)nc1n2CCC1)c1cc2cc(Cl)ccc2n1Cc1cccc(F)c1` has a melting point of 263 to 264 °C. For `O=C(Nc1cnc2c(c1)nc1n2CCCC1)c1cc2cc(C(F)(F)F)ccc2n1Cc1cccc(F)c1` [Compound 27, N-(6,7,8,9-Tetrahydroimidazo[1,2-a:5,4-b′]dipyridin-3-yl)-5-trifluoromethyl-1-(3-fluorobenzyl)-1H-indole-2-carboxamide], the melting point was 262 to 263 °C. `O=C(Nc1cnc2c(c1)nc1n2CCC1c1ccccc1)c1cc2cc(C(F)(F)F)ccc2n1Cc1cccc(F)c1` (racemic) [Compound 30, N-(6-Phenyl-7,8-dihydro-6H-pyrrolo[2′,1′:2,3]imidazo[4,5-b]pyridin-3-yl)-5-trifluoromethyl-1-(3-fluorobenzyl)-1H-indole-2-carboxamide] showed a melting point of 129 to 130 °C. With `O=C(Nc1cnc2c(c1)nc1n2CCC1)c1cc2cc(F)cnc2n1Cc1cccc(F)c1` the melting point was 242 to 243 °C. `CC(=O)OC1CCn2c1nc1cc(NC(=O)c3cc4cc(F)ccc4n3Cc3cccc(F)c3)cnc12` (racemic) [Compound 2, N-(6-Acetoxy-7,8-dihydro-6H-pyrrolo[2′,1′:2,3]imidazo[4,5-b]pyridin-3-yl)-5-fluoro-1-(3-fluorobenzyl)-1H-indole-2-carboxamide] gave a melting point of 139 to 141 °C.
